Measurements published in patent US9963448B2, “Bicyclic inhibitors of PAD4” (Padlock Therapeutics, Inc., priority 2015, dated 2018).
Like-named read-outs stand apart in the source and are kept apart here.

Target: hPAD4 (Homo sapiens, UniProt Q9UM07)
Assay: hPAD4 RFMS (RapidFire mass spectrometry) PAD4 inhibition assay;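 as to hPAD4 RFMS pIC50: grade E means pIC50 at most 4 and F means pIC50 4.0 to 5.0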
Assay type: biochemical
Conditions: hPAD4 enzyme, RFMS readout
Experimental: Compounds of the present invention were assayed as inhibitors of PAD4 using the assay protocol described below.
Compound stock solutions were stored at RT. […] Final assay conditions were as follows:
Total incubation time: 65 mins at 37° C.
Stop solution: 40 μl 5% TCA in ACN
The compound numbers correspond to the compound numbers in Table 1. […] The term pIC50=−log(IC50). […] “NA” stands for “not assayed.”

[1] = pIC50=−log(IC50), read-out: hPAD4 RFMS pIC50 (converted)

Chain of hPAD4 (Q9UM07 whole entry): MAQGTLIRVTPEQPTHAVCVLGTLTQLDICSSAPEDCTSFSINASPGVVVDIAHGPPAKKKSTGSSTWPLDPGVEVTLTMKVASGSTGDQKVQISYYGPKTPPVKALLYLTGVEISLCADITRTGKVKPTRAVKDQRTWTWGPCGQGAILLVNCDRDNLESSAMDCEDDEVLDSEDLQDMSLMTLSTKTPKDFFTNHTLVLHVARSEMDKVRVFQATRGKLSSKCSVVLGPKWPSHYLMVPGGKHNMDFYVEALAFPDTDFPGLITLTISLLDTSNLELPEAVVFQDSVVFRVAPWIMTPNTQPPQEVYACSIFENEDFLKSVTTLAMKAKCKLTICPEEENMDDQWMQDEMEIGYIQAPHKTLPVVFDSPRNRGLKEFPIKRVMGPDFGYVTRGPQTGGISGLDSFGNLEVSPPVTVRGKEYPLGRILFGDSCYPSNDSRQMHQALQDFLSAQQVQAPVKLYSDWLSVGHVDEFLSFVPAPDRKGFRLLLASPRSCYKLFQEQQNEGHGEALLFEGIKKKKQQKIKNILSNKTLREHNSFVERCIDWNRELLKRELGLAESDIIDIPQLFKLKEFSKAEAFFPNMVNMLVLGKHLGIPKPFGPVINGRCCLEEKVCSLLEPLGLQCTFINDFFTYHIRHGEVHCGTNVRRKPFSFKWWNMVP

| Compound | IC50 [1] [µM] | IC50 (read-out: hPAD4 RFMS IC50) [µM] |
| --- | --- | --- |
| COCCn1c(-c2nc3cc(C(=O)N4C[C@H](N)CC[C@@H]4C)cc(OC)c3n2C)cc2cccnc21 (racemic) [Compound I-170] | 1 to 10 | 1 to 5 |
| CCn1c(-c2nc3cc(C(=O)N4CC[C@@H]5CCN[C@@H]5C4)cc(OC)c3n2C)cc2cccnc21 (single isomer, unassigned) [Compound I-3] | 1 to 10 | 1 to 5 |
| CCn1c(-c2nc3cc(C(=O)N4CC[C@H]5CCN[C@H]5C4)cc(OC)c3n2C)cc2cccnc21 (single isomer, unassigned) [Compound I-14] | 10 to 100 | > 10 |
| CCn1c(-c2nc3cc(C(=O)N4CC[C@H]5CCN[C@H]5C4)ccc3n2C)cc2cccnc21 [Compound I-1] | 10 to 100 | > 10 |
| Cn1c(-c2cc3ccccc3n2CC2CC2)nc2cc(C(=O)N3CC[C@@H]4CCN[C@@H]4C3)ccc21 [Compound I-2] | 10 to 100 | > 10 |
| COc1cc(C(=O)N2CC[C@@H]3CCN[C@@H]3C2)cc2nc(-c3cc4cncnc4n3CC3CC3)n(C)c12 [Compound I-4, 5-[(3aS,7aS)-octahydro-1H-pyrrolo[2,3-c]pyridine-6-carbonyl]-2-[7-(cyclopropylmethyl)-7H-pyrrolo[2,3-d]pyrimidin-6-yl]-7-methoxy-1-methyl-1H-1,3-benzodiazole] | 10 to 100 | > 10 |
| CCn1c(-c2nc3cc(C(=O)N4CC[C@@H]5CCN[C@@H]5C4)ccc3n2C)cc2cccnc21 [Compound I-5] | 10 to 100 | > 10 |
| Cn1c(-c2cc3cccnc3n2CC2CC2)nc2cc(C(=O)N3CCC4CCNC4C3)ccc21 (stereo not drawn) [Compound I-6] | 1 to 10 | 1 to 5 |
| Cn1c(-c2cc3ccccc3n2CC2CC2)nc2cc(C(=O)N3CC[C@H]4CCN[C@H]4C3)ccc21 [Compound I-7] | < 1 | < 1 |
| COc1cc(C(=O)N2CCC3CCNC3C2)cc2nc(-c3cc4cccnc4n3CC3CC3)n(C)c12 (stereo not drawn) [Compound I-8] | < 1 | < 1 |
| CCn1c(-c2nc3cc(C(=O)N4CCC5CCNC5C4)cc(OC)c3n2C)cc2cccnc21 (stereo not drawn) [Compound I-13, 2-{1-ethyl-1H-pyrrolo[2,3-b]pyridin-2-yl}-7-methoxy-1-methyl-5-{octahydro-1H-pyrrolo[2,3-c]pyridine-6-carbonyl}-1H-1,3-benzodiazole] | 1 to 10 | 1 to 5 |
| COc1cc(C(=O)N2CCC3CCNC3C2)cc2nc(-c3cc4cncnc4n3CC3CC3)n(C)c12 (stereo not drawn) [Compound I-15, 2-[7-(cyclopropylmethyl)-7H-pyrrolo[2,3-d]pyrimidin-6-yl]-7-methoxy-1-methyl-5-{octahydro-1H-pyrrolo[2,3-c]pyridine-6-carbonyl}-1H-1,3-benzodiazole] | 1 to 10 | 5 to 10 |
| CCn1c(-c2nc3cc(C(=O)N4CCC5CCNC5C4)ccc3n2C)cc2cccnc21 (stereo not drawn) [Compound I-16] | 1 to 10 | 5 to 10 |
| Cn1c(-c2cc3cccnc3n2CC2CC2)nc2cc(C(=O)N3CC4CC3CN4)ccc21 (stereo not drawn) [Compound I-37] | > 100 | > 10 |
| Cn1c(-c2cc3cccnc3n2CC2CC2)nc2cc(C(=O)N3CC4CNC4C3)ccc21 (stereo not drawn) [Compound I-38] | > 100 | > 10 |
| Cn1c(-c2cc3cccnc3n2CC2CC2)nc2cc(C(=O)N3CCC4(CCCN4)C3)ccc21 (stereo not drawn) [Compound I-39] | 10 to 100 | > 10 |
| Cn1c(-c2cc3cccnc3n2CC2CC2)nc2cc(C(=O)N3CCC4CNC4C3)ccc21 (stereo not drawn) [Compound I-40] | 10 to 100 | > 10 |
| Cn1c(-c2cc3cccnc3n2CC2CC2)nc2cc(C(=O)N3CCCC4(CCCN4)C3)ccc21 (stereo not drawn) [Compound I-41] | 10 to 100 | > 10 |
| Cn1c(-c2cc3cccnc3n2CC2CC2)nc2cc(C(=O)N3CCCC4(CCN4)C3)ccc21 (stereo not drawn) [Compound I-42] | > 100 | > 10 |
| Cn1c(-c2cc3cccnc3n2CC2CC2)nc2cc(C(=O)N3CCC[C@@H]4CNC[C@@H]43)ccc21 [Compound I-43] | > 100 | > 10 |
| Cn1c(-c2cc3cccnc3n2CC2CC2)nc2cc(C(=O)N3CCC[C@H]4CNC[C@H]43)ccc21 [Compound I-44] | > 100 | > 10 |
| Cn1c(-c2cc3cccnc3n2CC2CC2)nc2cc(C(=O)N3CCCC4(CCCNC4)C3)ccc21 (stereo not drawn) [Compound I-45] | > 100 | > 10 |
| Cn1c(-c2cc3cccnc3n2CC2CC2)nc2cc(C(=O)N3CCCC4(CCNC4)C3)ccc21 (stereo not drawn) [Compound I-46] | > 100 | > 10 |

| Compound | IC50 [1] [µM] | IC50 (read-out: hPAD4 RFMS IC50) [µM] |
| --- | --- | --- |
| Cn1c(-c2cc3cccnc3n2CC2CC2)nc2cc(C(=O)N3C4CCC3CC(N)C4)ccc21 (stereo not drawn) [Compound I-47] | > 100 | > 10 |
| Cn1c(-c2cc3cccnc3n2CC2CC2)nc2cc(C(=O)N3CCCC4(CCCCN4)C3)ccc21 (stereo not drawn) [Compound I-48] | 10 to 100 | > 10 |
| Cn1c(-c2cc3cccnc3n2CC2CC2)nc2cc(C(=O)N3CCC(F)C(N)C3)ccc21 (stereo not drawn) [Compound I-49] | 1 to 10 | 5 to 10 |
| Cn1c(-c2cc3cccnc3n2CC2CC2)nc2cc(C(=O)N3CC4CCC(C3)C4N)ccc21 (stereo not drawn) [Compound I-50] | > 100 | > 10 |
| Cn1c(-c2cc3cccnc3n2CC2CC2)nc2cc(C(=O)N3CC(N)CC(F)(F)C3)ccc21 (stereo not drawn) [Compound I-51] | 10 to 100 | > 10 |
| Cn1c(-c2cc3cccnc3n2CC2CC2)nc2cc(C(=O)N3CCCC4NCCCC43)ccc21 (stereo not drawn) [Compound I-53] | > 100 | > 10 |
| COc1cc(C(=O)N2CC[C@@H](F)[C@H](N)C2)cc2nc(-c3cc4cccnc4n3CC3CC3)n(C)c12 [Compound I-57] | 1 to 10 | 1 to 5 |
| COc1cc(C(=O)N2CC[C@H](F)[C@@H](N)C2)cc2nc(-c3cc4cccnc4n3CC3CC3)n(C)c12 [Compound I-58] | 10 to 100 | > 10 |
| Cn1c(-c2cc3cccnc3n2CC2CC2)nc2cc(C(=O)N3CCC[C@H]4NCC[C@H]43)ccc21 [Compound I-60] | 10 to 100 | > 10 |
| Cn1c(-c2cc3cccnc3n2CC2CC2)nc2cc(C(=O)N3CCC[C@@H]4NCC[C@@H]43)ccc21 [Compound I-61] | > 100 | > 10 |
| Cn1c(-c2cc3cccnc3n2CC2CC2)nc2cc(C(=O)N3C4CCC(N)C3CC4)ccc21 (stereo not drawn) [Compound I-63] | 10 to 100 | > 10 |
| Cn1c(-c2cc3cccnc3n2CC2CC2)nc2cc(C(=O)N3C[C@H](N)C[C@H](F)C3)ccc21 [Compound I-67] | 10 to 100 | > 10 |
| COc1cc(C(=O)N2C[C@H]3C[C@H](OC)[C@@H]2[C@@H]3N)cc2nc(-c3cc4cccnc4n3CC3CC3)n(C)c12 [Compound I-167, (1 S,4R,6S,7R)-2-{2-[1-(Cyclopropylmethyl)-1H-pyrrolo[2,3-b]pyridin-2-yl]-7-methoxy-1-methyl-1H-1,3-benzodiazole-5-carbonyl}-6-methoxy-2-azabicyclo[2.2.1]heptan-7-amine] | 1 to 10 | 1 to 5 |
| CCn1c(-c2nc3cc(C(=O)N4C[C@H]5CC[C@@H]4[C@@H]5N)cc(OC)c3n2C[C@H]2C[C@@](C)(OC)C2)cc2cccnc21 [Compound I-168] | < 1 | < 1 |
| COCCn1c(-c2nc3cc(C(=O)N4C[C@H]5CC[C@@H]4[C@@H]5N)cc(OC)c3n2C)cc2cccnc21 [Compound I-169] | < 1 | < 1 |
| COc1ccc2cc(-c3nc4cc(C(=O)N5C[C@H](N)CC[C@@H]5C)ccc4n3C)n(CC3CC3)c2n1 [Compound I-352, ((2S,5R)-5-amino-2-methylpiperidin-1-yl)(2-(1-(cyclopropylmethyl)-6-methoxy-1H-pyrrolo[2,3-b]pyridin-2-yl)-1-methyl-1H-benzo[d]imidazol-5-yl)methanone] | < 1 | < 1 |
| COc1ccc2cc(-c3nc4cc(C(=O)N5C[C@H]6CC[C@@H]5[C@@H]6N)ccc4n3C)n(CC3CC3)c2n1 [Compound I-353, ((1R,4R,7R)-7-amino-2-azabicyclo[2.2.1]heptan-2-yl)(2-(1-(cyclopropylmethyl)-6-methoxy-1H-pyrrolo[2,3-b]pyridin-2-yl)-1-methyl-1H-benzo[d]imidazol-5-yl)methanone] | < 1 | < 1 |
| COc1ccc2cc(-c3nc4cc(C(=O)N5C[C@@H](N)C[C@H](F)C5)ccc4n3C)n(CC3CC3)c2n1 [Compound I-354, ((3S,5S)-3-amino-5-fluoropiperidin-1-yl)(2-(1-(cyclopropylmethyl)-6-methoxy-1H-pyrrolo[2,3-b]pyridin-2-yl)-1-methyl-1H-benzo[d]imidazol-5-yl)methanone] | < 1 | < 1 |
| COc1ccc2cc(-c3nc4cc(C(=O)N5C[C@H](N)CC[C@@H]5C)cc(OC)c4n3C)n(CC3CC3)c2n1 [Compound I-355, ((2S,5R)-5-amino-2-methylpiperidin-1-yl)(2-(1-(cyclopropylmethyl)-6-methoxy-1H-pyrrolo[2,3-b]pyridin-2-yl)-7-methoxy-1-methyl-1H-benzo[d]imidazol-5-yl)methanone] | < 1 | < 1 |
| COc1ccc2cc(-c3nc4cc(C(=O)N5C[C@@H](N)C[C@H](F)C5)cc(OC)c4n3C)n(CC3CC3)c2n1 [Compound I-356, ((3S,5S)-3-amino-5-fluoropiperidin-1-yl)(2-(1-(cyclopropylmethyl)-6-methoxy-1H-pyrrolo[2,3-b]pyridin-2-yl)-7-methoxy-1-methyl-1H-benzo[d]imidazol-5-yl)methanone] | < 1 | < 1 |
| COc1cc(C(=O)N2C[C@H]3CCC2[C@H]3N)cc2nc(-c3cc4cc(/C=C/C5CC5)ccc4n3CC3CC3)n(C)c12 [Compound I-357] | < 1 | < 1 |
| COc1cc(C(=O)N2C[C@H]3CCC2[C@H]3N)cc2nc(-c3cc4cc(/C=C/CC(C)C)ccc4n3CC3CC3)n(C)c12 [Compound I-358] | < 1 | < 1 |
